Reference: US12251388B1, “Methods of treating ischemic stroke at risk for cerebral or cerebellar edema” (REMEDY PHARMACEUTICALS, INC., priority 2024, dated 2025)

Tested on: large hemispheric infarction (LHI) patients at high risk for cerebral edema
Assay: CHARM trial: mRS score at 90 days, shift analysis on 5-category ordinal scale (0/1 and 5/6 collapsed), intravenous glibenclamide versus placebo
Format: in vivo, human
Details: for Common Odds Ratio: mITT population (aged ≤70 years), drug vs placebo
Description: The CHARM trial evaluated the safety and efficacy of intravenous glibenclamide as a treatment for large hemispheric infarction (LHI) patients at high risk for cerebral edema.
Patients meeting the following criteria were included: • A clinical diagnosis of acute ischemic stroke in the middle cerebral artery (MCA) territory. • A large hemispheric infarction defined as; lesion volume of 80 to 300 centimeters cubed (cm^3) on magnetic resonance imaging (MRI) diffusion-weighted imaging (DWI), or computed tomography perfusion (CTP), or an Alberta Stroke Program Early CT Score (ASPECTS) of 1 to 5 with involvement of at least 2 defined cortical regions. • Screening National Institutes of Health Stroke Scale (NIHSS)>=10. • At the time of randomization, and in the Investigator's judgement, it must be feasible for study drug treatment infusion to be initiated no later than 10 hours after time of symptom onset, if known, or the time last known normal. • Participants who wake with stroke may be included if neurological and other exclusion criteria are satisfied. The time of stroke onset is to be taken as the midpoint between sleep onset (or last known to be normal) and time of waking.
Patients meeting the following criteria were excluded: • Participant is likely to have supportive care withdrawn on the first day. • Commitment to decompressive craniectomy (DC) prior to enrollment. • Evidence of concurrent infarction in the contralateral hemisphere sufficiently serious so as to affect functional outcome. Pre-Specified Primary Endpoint
Modified Rankin Scale (mRS) score at 90 days analyzed as a shift analysis using a 5-category ordinal scale with 0/1 and 5/6 collapsed. The primary efficacy analysis was pre-specified to be conducted in participants 18-70 years of age (inclusive) who were randomized and receive study treatment (the modified intent-to-treat [mITT] population].
Five hundred thirty-five subjects were enrolled, with 268 treated with placebo and 267 treated with intravenous glyburide. The mITT population (the primary analysis population), those participants aged≤70 years who received any study drug, consisted of 431 subjects.
An analysis was conducted in the mITT population to examine effects of limits on the NIHSS. […] A common odds ratio of greater than 1 indicates a positive drug effect and in the group having an NIHSS of ≤20, the common odds ratio exceeded 1.7, indicating a robust effect in favor of the drug.

[1] = mRS scores 5 and 6 combined, baseline NIHSS ≥10 and ≤20

COc1ccc(Cl)cc1C(=O)NCCc1ccc(S(=O)(=O)NC(=O)NC2CCCCC2)cc1 [intravenous glyburide, glyburide]
Common Odds Ratio (NIHSS cutoff ≤18, mRS at 90 days, n=197): 2.027
Common Odds Ratio (NIHSS cutoff ≤19, mRS at 90 days, n=232): 1.846
Common Odds Ratio (NIHSS cutoff ≤21, mRS at 90 days, n=303): 1.260
Common Odds Ratio (NIHSS cutoff ≤22, mRS at 90 days, n=328): 1.144
Common Odds Ratio (NIHSS cutoff ≤23, mRS at 90 days, n=352): 1.142
lesion volume at the "no effect" level of the treatment effect (mRS) [1]: approximately 140 cm^3
lesion volume at which a robust treatment effect (mRS) is seen [1]: ≤ 125 cm^3
